According to publication PMC10714432 (ACS Pharmacology & Translational Science, 2023):

Molecular target: PDE5A1 (Homo sapiens, UniProt O76074)
Assay: cGMP hydrolysis by purified PDE5A1, cGMP Lumit bioluminescent readout
Format: biochemical

IC50: 3.8 µM
SMILES: CC(C)Cn1c(=O)n(C)c(=O)c2[nH]cnc21 [IBMX]
